Assay results reported in patent US20100267637A1, “TREATMENT OF MELANOMA WITH ALPHA THYMOSIN PEPTIDES IN COMBINATION WITH A KINASE INHIBITOR” (SciClone Pharmaceuticals, Inc., priority 2007, published 2010).

Test system: murine B16 melanoma cells
Test: Anti-tumor effect: tumor size / tumor volume in mice bearing subcutaneous B16 melanoma
Format: in vivo, C57BL/6 mice
Parameters: key to Tumor measurement L (length) / Tumor measurement W (width): The sign “—” indicates that tumor does not reach a measurable size
Conditions: for Tumor Volume (cm^3) (Mean ± SD): group mean; for PI (TV), percent inhibition of tumor volume: vs vehicle; for Tumor volumes on Day 15: Length × Width × Width/2
Protocol: The toxic effects of the dosing regimens were also monitored. […] Meanwhile 9H10 was given in two groups via i.p. on Day 3, 6 and 9. […] Tumor volume and body weight were measured every three days, and tumor weights were measured on Day 16 at the end of the study.
As per aseptic tissue culture procedures, one vial of B16 melanoma cells was removed from the liquid nitrogen stock, and placed into a 37° C. water bath. Gentle swirling was conducted until the content of the vial was thawed. Using tissue culture/sterile procedures, the cells were immediately centrifuged with a TD5A-WS centrifuge at 1000 rpm, 20-25° C., 5 min. After centrifugation, the cells were suspended in 0.1 to 0.5 mL normal saline (NS) and subcutaneously injected into 10 mice (0.1 mL/mouse, about 1×10^6 cells). After 7-10 days, when the tumor diameter was approximately 1 cm, the animals were euthanized with CO2 overdose and the tumors excised. The procedure was repeated with 20 mice to generate a sufficient number of B16 melanoma cells with adequate transplantability.
On the day of tumor implantation, approximately 1×10^6 cells in 0.1 mL were subcutaneously injected on the right axillary area of each mouse. The day of tumor implantation was defined as Day 0.
On Day 3, the animals were randomly assigned into nine different weight-matched and tumor-size-matched groups. Dosing was started on Day 3 using the regimen according to Table 2.
From Day 1 to Day 15, mortality and moribundity were checked twice daily, the body weights were recorded once every 3 days, and tumors were measured using a caliper once every 3 days. At the end of the study (Day 16), the animals were euthanized by CO2 asphyxiation, and the tumors were excised and weighed.
Based on the tumor size, the tumor volume (TV) was calculated with the formula: [TV=(Length×Width×Width)/2]. And the percent inhibition (PI) of TV (PITV) was calculated according to the equation below:
PITV(%)=(TV vehicle−TVdrug treated)/TV vehicle×100
Inter-group comparison was performed in terms of tumor volume, tumor weight and body weight, using a student's t test. P values of less than 0.05 were considered to be statistically significant.

## CNC(=O)c1cc(Oc2ccc(NC(=O)Nc3ccc(Cl)c(C(F)(F)F)c3)cc2)ccn1 [Sorafenib]
Day 3, animal F1
  Tumor measurement L (length): —
  Tumor measurement W (width): —
  Tumor volume: 0.0000 cm^3
Day 3, animal F2
  Tumor measurement L (length): 0.20 cm
  Tumor measurement W (width): 0.20 cm
  Tumor volume: 0.0040 cm^3
Day 3, animal F3
  Tumor measurement L (length): 0.10 cm
  Tumor measurement W (width): 0.10 cm
  Tumor volume: 0.0005 cm^3
Day 3, animal F4
  Tumor measurement L (length): —
  Tumor measurement W (width): —
  Tumor volume: 0.0000 cm^3
Day 3, animal F5
  Tumor measurement L (length): —
  Tumor measurement W (width): —
  Tumor volume: 0.0000 cm^3
Day 3, animal M1
  Tumor measurement L (length): 0.20 cm
  Tumor measurement W (width): 0.20 cm
  Tumor volume: 0.0040 cm^3
Day 3, animal M2
  Tumor measurement L (length): —
  Tumor measurement W (width): —
  Tumor volume: 0.0000 cm^3
Day 3, animal M3
  Tumor measurement L (length): —
  Tumor measurement W (width): —
  Tumor volume: 0.0000 cm^3
Day 3, animal M4
  Tumor measurement L (length): —
  Tumor measurement W (width): —
  Tumor volume: 0.0000 cm^3
Day 3, animal M5
  Tumor measurement L (length): —
  Tumor measurement W (width): —
  Tumor volume: 0.0000 cm^3
Day 3
  Tumor Volume (cm^3) (Mean ± SD): 0.001 ± 0.0017 cm^3
  PI (TV), percent inhibition of tumor volume: −750.00%
Day 6, animal F1
  Tumor measurement L (length): —
  Tumor measurement W (width): —
  Tumor volume: 0.0000 cm^3
Day 6, animal F2
  Tumor measurement L (length): —
  Tumor measurement W (width): —
  Tumor volume: 0.0000 cm^3
Day 6, animal F3
  Tumor measurement L (length): —
  Tumor measurement W (width): —
  Tumor volume: 0.0000 cm^3
Day 6, animal F4
  Tumor measurement L (length): —
  Tumor measurement W (width): —
  Tumor volume: 0.0000 cm^3
Day 6, animal F5
  Tumor measurement L (length): —
  Tumor measurement W (width): —
  Tumor volume: 0.0000 cm^3
Day 6, animal M1
  Tumor measurement L (length): —
  Tumor measurement W (width): —
  Tumor volume: 0.0000 cm^3
Day 6, animal M2
  Tumor measurement L (length): —
  Tumor measurement W (width): —
  Tumor volume: 0.0000 cm^3
Day 6, animal M3
  Tumor measurement L (length): —
  Tumor measurement W (width): —
  Tumor volume: 0.0000 cm^3
Day 6, animal M4
  Tumor measurement L (length): —
  Tumor measurement W (width): —
  Tumor volume: 0.0000 cm^3
Day 6, animal M5
  Tumor measurement L (length): —
  Tumor measurement W (width): —
  Tumor volume: 0.0000 cm^3
Day 6
  Tumor Volume (cm^3) (Mean ± SD): 0.000 ± 0.0000 cm^3
  PI (TV), percent inhibition of tumor volume: 100.00%
Day 9, animal F1
  Tumor volume: 0.0000 cm^3
Day 9, animal F2
  Tumor volume: 0.0000 cm^3
Day 9, animal F3
  Tumor volume: 0.0000 cm^3
Day 9, animal F4
  Tumor volume: 0.0000 cm^3
Day 9, animal F5
  Tumor measurement L (length): 0.10 cm
  Tumor measurement W (width): 0.10 cm
  Tumor volume: 0.0005 cm^3
Day 9, animal M1
  Tumor volume: 0.0000 cm^3
Day 9, animal M2
  Tumor volume: 0.0000 cm^3
Day 9, animal M3
  Tumor volume: 0.0000 cm^3
Day 9, animal M4
  Tumor volume: 0.0000 cm^3
Day 9, animal M5
  Tumor measurement L (length): 0.10 cm
  Tumor measurement W (width): 0.10 cm
  Tumor volume: 0.0005 cm^3
Day 9
  Tumor Volume (cm^3) (Mean ± SD): 0.000 ± 0.0002 cm^3
  PI (TV), percent inhibition of tumor volume: 99.52%
Day 9, p<0.05
  mean tumor volume compared with Group 1 (vehicle), statistics: statistically significantly smaller than Group 1
Day 12, animal F1
  Tumor measurements on Day 12, L: 0.30 cm
  Tumor measurements on Day 12, W: 0.30 cm
Day 12, animal F2
  Tumor volume: 0.0000 cm^3
Day 12, animal F3
  Tumor measurements on Day 12, L: 0.30 cm
  Tumor measurements on Day 12, W: 0.30 cm
Day 12, animal F4
  Tumor measurements on Day 12, L: 0.30 cm
  Tumor measurements on Day 12, W: 0.30 cm
Day 12, animal F5
  Tumor measurements on Day 12, L: 0.30 cm
  Tumor measurements on Day 12, W: 0.30 cm
Day 12, animal M1
  Tumor volume: 0.0000 cm^3
Day 12, animal M2
  Tumor measurements on Day 12, L: 0.30 cm
  Tumor measurements on Day 12, W: 0.30 cm
Day 12, animal M3
  Tumor volume: 0.0000 cm^3
Day 12, animal M4
  Tumor volume: 0.0000 cm^3
Day 12, animal M5
  Tumor measurements on Day 12, L: 0.30 cm
  Tumor measurements on Day 12, W: 0.30 cm
Day 12
  Tumor Volume (cm^3) (Mean ± SD): 0.008 ± 0.0070 cm^3
  PI (TV), percent inhibition of tumor volume: 97.64%
Day 15, animal F1
  Tumor measurements on Day 15, L: 0.60 cm
  Tumor measurements on Day 15, W: 0.60 cm
Day 15, animal F2
  Tumor measurements on Day 15, L: 0.40 cm
  Tumor volumes on Day 15: 0.0320 cm^3
  Tumor measurements on Day 15, W: 0.40 cm
Day 15, animal F3
  Tumor measurements on Day 15, L: 0.60 cm
  Tumor measurements on Day 15, W: 0.60 cm
Day 15, animal F4
  Tumor measurements on Day 15, L: 0.70 cm
  Tumor volumes on Day 15: 0.0875 cm^3
  Tumor measurements on Day 15, W: 0.50 cm
Day 15, animal F5
  Tumor measurements on Day 15, L: 0.50 cm
  Tumor volumes on Day 15: 0.0625 cm^3
  Tumor measurements on Day 15, W: 0.50 cm
Day 15, animal M1
  Tumor measurements on Day 15, L: 0.20 cm
  Tumor volumes on Day 15: 0.0040 cm^3
  Tumor measurements on Day 15, W: 0.20 cm
Day 15, animal M2
  Tumor measurements on Day 15, L: 0.50 cm
  Tumor volumes on Day 15: 0.0625 cm^3
  Tumor measurements on Day 15, W: 0.50 cm
Day 15, animal M3
  Tumor measurements on Day 15, L: 0.20 cm
  Tumor volumes on Day 15: 0.0040 cm^3
  Tumor measurements on Day 15, W: 0.20 cm
Day 15, animal M4
  Tumor measurements on Day 15, L: 0.30 cm
  Tumor measurements on Day 15, W: 0.30 cm
Day 15, animal M5
  Tumor measurements on Day 15, L: 0.50 cm
  Tumor volumes on Day 15: 0.0625 cm^3
  Tumor measurements on Day 15, W: 0.50 cm
Day 15
  Tumor Volume (cm^3) (Mean ± SD): 0.054 ± 0.0399 cm^3
  PI (TV), percent inhibition of tumor volume: 92.56%
Daily dosing Days 3-15
  effect on tumor growth in words: effective towards the tumor inhibition
